Legend:
[1] = tested on: Fourth-passage human dental pulp cells; experiment: Migration promotion of dental pulp cells by culture supernatant of senescent dental pulp stem cells (TAXIscan-FL); assay type: cell-based; details: 1 μl DPSC CM containing 1 μl of 20 mg/ml compound as attractant; n=4; non 5.0 ± 1.0
Protocol: Non-separated 22nd-passage human dental pulp stem cells were brought into a state of 50% confluence. The medium was replaced with a serum-free medium. After 24 hours, the culture conditioned medium was collected. The supernatant was concentrated approximately 40-fold using Amicon Ultra-15 Centrifugal Filter Unit with Ultracel-3 membrane (Millipore, Billerica, Mass.) with 3-kDa molecular cut. Proteinase inhibitors (Halt™ proteinase inhibitor cocktail EDTA-free, Thermo Scientific, Rockford, Ill., USA) was added. The mixture was dispended to be stored at −80° C. Protein content was measured using Bradford Ultra™ (Expedeon, Cambridge, UK).
Fourth-passage human dental pulp cells were plated in DMEM containing 10% FBS in 10 cm dishes (FALCON) at 2×10^4 cells/ml. After 48 hours, the cells were detached, and a real-time horizontal chemotaxis analysis was performed using TAXlscan-FL (Effector Cell Institute, Tokyo) to measure the migratory capacity. Specifically, channels optimized (8 μm) for the size of the cells were formed between a silicon plate having 6 μm pores and a glass plate, and 1 μl of treated dental pulp cells (10^5 cells/ml) was injected to one end portion of each of the channels (n=4). As a control, one of the channels received nothing at the opposite end portion. […] Based on the video images of migration, the number of migrating cells after 12 hours was measured.

[2] = tested on: Eleventh-passage human periodontal ligament cells; experiment: Senescence marker expression in senescent cells of human periodontal membrane (real-time RT-PCR); assay type: cell-based; details: 48 hours; for IL1β senescence marker expression / IL6 senescence marker expression / IL8 senescence marker expression / p16 senescence marker expression / p53 senescence marker expression: control = 1
Protocol: (§1) Eleventh-passage human periodontal ligament cells were plated in DMEM containing 10% FBS in collagen-coated 35 mm dishes (IWAKI) at a density of 2×10^4 cells/ml. After 20 hours, ALK5 inhibitor (SB431542) was added to final concentrations of 5 ng/μl and 10 ng/μl. Further, CCR3 antagonist (SB328437) was added to final concentrations of 5 ng/μl and 10 ng/μl. After 48 hours, mRNA was extracted, and real-time RT-PCR was performed on senescence markers, namely p16, p53, IL6, IL1b, IL8, and TNFα (Table 4).

[3] = tested on: Eleventh-passage human periodontal ligament cells; experiment: Expression of migratory capacity-related factors in senescent cells of human periodontal membrane (real-time RT-PCR); assay type: cell-based; details: control = 1
Protocol: as §1
Real-time RT-PCR was performed on migratory capacity-related factors, namely, MMP9, MMP3, and MMP2 (Table 8) using mRNA similar to that described in 2 above.

[4] = tested on: Fifth-passage human periodontal membrane cells; experiment: mRNA expression of CCL11, CCR3 and GDF11 in human periodontal membrane cells (real-time RT-PCR); assay type: cell-based; details: 5, 10 and 30 ng/μl added; after 32 hours
Protocol: Fifth-passage human periodontal membrane cells were plated in a DMEM containing 10% FBS in collagen-coated 35 mm dishes (IWAKI) at a density of 2×10^4 cells/ml. After 9 hours, an ALK5 inhibitor (SB431542) was added to final concentrations of 5 ng/μl, 10 ng/μl, and 30 ng/μl. Further, a CCR3 antagonist (SB328437) was added to final concentrations of 5 ng/μl, 10 ng/μl, and 30 ng/μl. After 32 hours, mRNA was extracted, and real-time RT-PCR was performed on CCL11, CCR3, and GDF11.

[5] = tested on: post-pulpectomy root canal of a tooth of the canine; experiment: Dental pulp regeneration after pulpectomy, allogeneic transplantation of dental pulp stem cells with root canal filler containing ALK5 inhibitor or CCR3 antagonist; assay type: in vivo, dog
Description: For each tooth, the root canal was enlarged with #50-55 to the apex, and was washed alternately with a 5% sodium hypochlorite solution and a 3% hydrogen peroxide solution, followed by washing with physiologic saline. The root canal was completely dried with paper points, and hemorrhage was controlled. The root canal was completely closed with a temporary seal of cement and resin. After 7 to 14 days following the pulpectomy, the temporary seal was removed, and the root canal underwent alternate washing and with physiologic saline. Smearclean was then allowed to react for 2 minutes. The root canal was then further washed with physiologic saline, and dried. A root canal filler was prepared by suspending 1×10^6 allogenic dental pulp stem cells, which had been membrane-separated, in 40 μl of a scaffold (Koken Atelocollagen Implant, KOKEN CO., LTD.), and by suspending 3 μl of a 100 μg/ml G-CSF (NEUTROGIN, Chugai Pharmaceutical Co., Ltd.). Further, an ALK5 inhibitor (SB431542, 200 ng) was added to part of the root canal filler. A CCR3 antagonist (SB328437, 200 ng) was added to another part of the root canal filler. The root canal filler with the ALK5 inhibitor or the CCR3 antagonist was injected into associated root canal such that no air bubbles were involved. A hemostatic gelatin sponge (Spongel) was put on the root canal filler. The cavity was completely sealed with cement and resin. After 14 days and 60 days following the transplantation, the teeth were extracted. According to a common method, 5 μm paraffin sections of longitudinal cross section were prepared. The paraffin sections were then H-E stained to undergo morphological observation. Amounts of regenerated dental pulp of four sections were measured for each sample, and an average amount of three samples (14-day samples) or an average amount of four samples (60-day samples) was determined to be the amount of regenerated dental pulp of the respective sample. To analyze angiogenesis, the 60-day samples were immunostained with BS-1 lectin. To analyze neurite outgrowth, the 60-day samples were immunostained with PGP 9.5.

[6] = canine of middle or advanced age, 200 ng in root canal filler, after 14 days, vs filler without
[7] = canine of middle or advanced age, 200 ng in root canal filler, after 60 days, vs filler without
[8] = canine of middle or advanced age, 200 ng, after 60 days

SMILES | number of migrating cells after 12 hours, Average ± SD [1] | IL1β senescence marker expression ([2]; 5 ng/μl) | IL6 senescence marker expression ([2]; 5 ng/μl) | IL8 senescence marker expression ([2]; 5 ng/μl) | p16 senescence marker expression ([2]; 5 ng/μl) | p53 senescence marker expression ([2]; 5 ng/μl) | IL1β senescence marker expression ([2]; 10 ng/μl) | IL6 senescence marker expression ([2]; 10 ng/μl) | IL8 senescence marker expression ([2]; 10 ng/μl) | p16 senescence marker expression ([2]; 10 ng/μl) | p53 senescence marker expression ([2]; 10 ng/μl) | MMP2 expression (migratory capacity-related factor) ([3]; 5 ng/μl) | MMP3 expression (migratory capacity-related factor) ([3]; 5 ng/μl) | MMP9 expression (migratory capacity-related factor) ([3]; 5 ng/μl) | MMP2 expression (migratory capacity-related factor) ([3]; 10 ng/μl) | MMP3 expression (migratory capacity-related factor) ([3]; 10 ng/μl) | MMP9 expression (migratory capacity-related factor) ([3]; 10 ng/μl) | mRNA expression of CCL11 [4] | amount of regenerated dental pulp tissue [5, 6] | amount of regenerated dental pulp tissue [5, 7] | other results
NC(=O)c1ccc(-c2nc(-c3ccc4c(c3)OCO4)c(-c3ccccn3)[nH]2)cc1 [ALK5 inhibitor, SB431542] | 12.7 ± 2.1 | 0.16 | 0.20 | 0.15 | 0.36 | 0.92 | 0.03 | 0.04 | 0.04 | 0.10 | 0.50 | 0.93 | 1.08 | 0.10 | 1.02 | 0.96 | 0.06 | completely suppressed | significant increase | significant increase | TNFα mRNA expression ([2]; 5 ng/μl and 10 ng/μl added): significantly suppressed; increase of expression of GDF11 mRNA [4]: 5 times; density of angiogenesis (BS-1 lectin) [5, 8]: significant increase
COC(=O)[C@H](Cc1ccc([N+](=O)[O-])cc1)NC(=O)c1cccc2ccccc12 [CCR3 antagonist, SB328437] | 23.7 ± 5.1 | 0.09 | 0.09 | 0.12 | 0.14 | 0.56 | 0.31 | 0.20 | 0.26 | 0.30 | 0.92 | 0.54 | 2.34 | 0 | 0.75 | 0.54 | 0.63 | completely suppressed | significant increase | significant increase | mRNA expression of CCR3 [4]: completely suppressed; neurite outgrowth (PGP 9.5) [5, 8]: significant increase; amount of regenerated dental pulp tissue ([5]; canine of young age, 200 ng, after 14 days): did not cause any significant increase

Reference: patent publication US10668134B2, “Dental pretreatment material and dental tissue regeneration kit” (National Center for Geriatrics and Gerontology, priority 2016, dated 2020)
